Source: ChEMBL document CHEMBL1201862, “PubChem BioAssay data set” (2004)
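Grown in 96-well plates, cells were treated for 48 hours with each compound at five concentrations. Insufficient inhibition: endpoint recorded as highest concentration tested. Abbreviation: GI50, concentration required for 50% inhibition of growth.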 Activity calls are given as the source filed them. Cut-off read from the data, not from the text of the source: active = GI50 up to about 1.1 µM and inactive = higher.

Key:
Test in all cases: NCI tumour cell line growth inhibition, 48 h
SW-620 = test system: SW-620
UO-31 = test system: UO-31
OVCAR-5 = test system: OVCAR-5
SF-295 = test system: SF-295
SNB-19 = test system: SNB-19
SR = test system: SR
OVCAR-4 = test system: OVCAR-4
SK-MEL-28 = test system: SK-MEL-28
HOP-62 = test system: HOP-62
CCRF-CEM = test system: CCRF-CEM
SN12C = test system: SN12C
HCT-15 = test system: HCT-15
LOX IMVI = test system: LOX IMVI
UACC-257 = test system: UACC-257
EKVX = test system: EKVX
MDA-MB-231 = test system: MDA-MB-231
DU-145 = test system: DU-145
NCI-H460 = test system: NCI-H460
PC-3 = test system: PC-3
SNB-75 = test system: SNB-75
T47D = test system: T47D
HL-60 = test system: HL-60
BT-549 = test system: BT-549
NCI-H23 = test system: NCI-H23
A498 = test system: A498
KM12 = test system: KM12
SK-MEL-5 = test system: SK-MEL-5
MOLT-4 = test system: MOLT-4
SF-268 = test system: SF-268
NCI-H226 = test system: NCI-H226
SK-MEL-2 = test system: SK-MEL-2
RPMI-8226 = test system: RPMI-8226
COLO 205 = test system: COLO 205
TK-10 = test system: TK-10
Hs-578T = test system: Hs-578T
K562 = test system: K562
MDA-MB-435 = test system: MDA-MB-435
M14 = test system: M14
HT-29 = test system: HT-29
NCI-H522 = test system: NCI-H522
OVCAR-3 = test system: OVCAR-3
MCF7 = test system: MCF7
786-0 = test system: 786-0
CAKI-1 = test system: CAKI-1
ACHN = test system: ACHN
OVCAR-8 = test system: OVCAR-8
MDA-N = test system: MDA-N
NCI/ADR-RES = test system: NCI/ADR-RES
HCT-116 = test system: HCT-116
SF-539 = test system: SF-539
A549 = test system: A549
HOP-92 = test system: HOP-92
UACC-62 = test system: UACC-62
HCC 2998 = test system: HCC 2998
U-251 = test system: U-251
IGROV-1 = test system: IGROV-1
SK-OV-3 = test system: SK-OV-3

For `CC(C)C(=O)OCN(C)c1nc(N(C)COC(=O)C(C)C)nc(N(C)COC(=O)C(C)C)n1`, which GI50 (SW-620) is on record?
Its GI50 is 21.6 µM (inactive).

And the GI50 (UO-31)?
Its GI50 is 22.2 µM (inactive).

And the GI50 (OVCAR-5)?
Its GI50 is 27.7 µM (inactive).

What about the GI50 (SF-295) of the same molecule?
The GI50 was 27.3 µM (inactive).

And the GI50 (SNB-19)?
The GI50 was 42.1 µM (inactive).

And the GI50 (SR)?
Its GI50 is 22.8 µM (inactive).

What about the GI50 (OVCAR-4) of the same molecule?
The GI50 was 23.8 µM (inactive).

What about the GI50 (SK-MEL-28) of the same molecule?
Its GI50 is 19.8 µM (inactive).

And the GI50 (HOP-62)?
The GI50 was 33.2 µM (inactive).

And the GI50 (CCRF-CEM)?
The GI50 was 22.3 µM (inactive).

What about the GI50 (SN12C) of the same molecule?
The GI50 was 28.4 µM (inactive).

What about the GI50 (HCT-15) of the same molecule?
Its GI50 is 21.6 µM.

What about the GI50 (LOX IMVI) of the same molecule?
The GI50 was 14.6 µM (inactive).

And the GI50 (UACC-257)?
Its GI50 is 19.1 µM (inactive).

And the GI50 (EKVX)?
The GI50 was > 100 µM (inactive).

And the GI50 (MDA-MB-231)?
Its GI50 is 25.2 µM (inactive).

What about the GI50 (DU-145) of the same molecule?
Its GI50 is 37.5 µM (inactive).

And the GI50 (NCI-H460)?
The GI50 was 21.8 µM (inactive).

And the GI50 (PC-3)?
Its GI50 is 27.7 µM (inactive).

What about the GI50 (SNB-75) of the same molecule?
The GI50 was 17.8 µM (inactive).

And the GI50 (T47D)?
Its GI50 is 30.3 µM (inactive).

And the GI50 (HL-60)?
Its GI50 is 22.3 µM (inactive).

And the GI50 (BT-549)?
The GI50 was 20.8 µM (inactive).

And the GI50 (NCI-H23)?
Its GI50 is 20.7 µM (inactive).

What about the GI50 (A498) of the same molecule?
Its GI50 is 36 µM (inactive).

What about the GI50 (KM12) of the same molecule?
Its GI50 is 24.2 µM (inactive).

What about the GI50 (SK-MEL-5) of the same molecule?
The GI50 was 15.1 µM (inactive).

What about the GI50 (MOLT-4) of the same molecule?
Its GI50 is 22.3 µM (inactive).

What about the GI50 (SF-268) of the same molecule?
Its GI50 is > 10 µM (inactive).

And the GI50 (NCI-H226)?
Its GI50 is 41.4 µM (inactive).

And the GI50 (SK-MEL-2)?
Its GI50 is 23.2 µM (inactive).

And the GI50 (RPMI-8226)?
Its GI50 is 22.8 µM (inactive).

What about the GI50 (COLO 205) of the same molecule?
Its GI50 is 20.1 µM (inactive).

And the GI50 (TK-10)?
Its GI50 is 85.7 µM (inactive).

What about the GI50 (Hs-578T) of the same molecule?
The GI50 was 17.9 µM (inactive).

And the GI50 (K562)?
Its GI50 is 30.5 µM (inactive).

And the GI50 (MDA-MB-435)?
The GI50 was 17.8 µM (inactive).

What about the GI50 (M14) of the same molecule?
The GI50 was 17 µM (inactive).

And the GI50 (HT-29)?
Its GI50 is 25.2 µM (inactive).

What about the GI50 (NCI-H522) of the same molecule?
The GI50 was 18.3 µM (inactive).

What about the GI50 (OVCAR-3) of the same molecule?
Its GI50 is 36.6 µM (inactive).

What about the GI50 (MCF7) of the same molecule?
Its GI50 is 35.6 µM (inactive).

And the GI50 (786-0)?
Its GI50 is 28.5 µM (inactive).

And the GI50 (CAKI-1)?
The GI50 was 34.5 µM (inactive).

What about the GI50 (ACHN) of the same molecule?
Its GI50 is 32 µM (inactive).

What about the GI50 (OVCAR-8) of the same molecule?
The GI50 was 19.8 µM (inactive).

What about the GI50 (MDA-N) of the same molecule?
Its GI50 is 22.2 µM (inactive).

And the GI50 (NCI/ADR-RES)?
Its GI50 is 34.8 µM (inactive).

What about the GI50 (HCT-116) of the same molecule?
The GI50 was 32.1 µM (inactive).

And the GI50 (SF-539)?
The GI50 was 23.2 µM (inactive).

And the GI50 (A549)?
The GI50 was 43.1 µM (inactive).

Which GI50 (SW-620) does the source give for `O=C1c2cc(O)c(O)cc2O[C@H](c2ccc(O)c(O)c2)[C@H]1O` here?
Its GI50 is > 100 µM (inactive).

What about the GI50 (UO-31) of the same molecule?
Its GI50 is > 100 µM (inactive).

What about the GI50 (OVCAR-5) of the same molecule?
The GI50 was > 100 µM (inactive).

What about the GI50 (SF-295) of the same molecule?
The GI50 was > 100 µM (inactive).

And the GI50 (SNB-19)?
Its GI50 is > 100 µM (inactive).

And the GI50 (SR)?
Its GI50 is > 100 µM (inactive).

What about the GI50 (SK-MEL-28) of the same molecule?
The GI50 was > 100 µM (inactive).

What about the GI50 (HOP-62) of the same molecule?
Its GI50 is 80.7 µM (inactive).

And the GI50 (CCRF-CEM)?
Its GI50 is 68.4 µM (inactive).

What about the GI50 (SN12C) of the same molecule?
Its GI50 is > 100 µM (inactive).

What about the GI50 (HCT-15) of the same molecule?
The GI50 was over 100 µM.

What about the GI50 (LOX IMVI) of the same molecule?
Its GI50 is > 100 µM (inactive).

What about the GI50 (UACC-257) of the same molecule?
The GI50 was 98.9 µM (inactive).

What about the GI50 (EKVX) of the same molecule?
Its GI50 is > 100 µM (inactive).

What about the GI50 (MDA-MB-231) of the same molecule?
Its GI50 is > 100 µM (inactive).

What about the GI50 (HOP-92) of the same molecule?
The GI50 was > 100 µM (inactive).

And the GI50 (UACC-62)?
The GI50 was > 100 µM (inactive).

And the GI50 (DU-145)?
The GI50 was > 100 µM (inactive).

And the GI50 (NCI-H460)?
Its GI50 is 49.7 µM (inactive).

What about the GI50 (PC-3) of the same molecule?
The GI50 was > 100 µM (inactive).

What about the GI50 (SNB-75) of the same molecule?
The GI50 was > 100 µM (inactive).

What about the GI50 (T47D) of the same molecule?
Its GI50 is > 100 µM (inactive).

What about the GI50 (HL-60) of the same molecule?
Its GI50 is > 100 µM (inactive).

What about the GI50 (BT-549) of the same molecule?
Its GI50 is > 100 µM (inactive).

What about the GI50 (NCI-H23) of the same molecule?
Its GI50 is 45.4 µM (inactive).

And the GI50 (HCC 2998)?
Its GI50 is > 100 µM (inactive).

What about the GI50 (A498) of the same molecule?
Its GI50 is > 100 µM (inactive).

And the GI50 (KM12)?
Its GI50 is > 100 µM (inactive).

And the GI50 (SK-MEL-5)?
The GI50 was > 100 µM (inactive).

What about the GI50 (MOLT-4) of the same molecule?
The GI50 was > 100 µM (inactive).

What about the GI50 (SF-268) of the same molecule?
The GI50 was > 100 µM (inactive).

And the GI50 (NCI-H226)?
Its GI50 is 85.1 µM (inactive).

And the GI50 (SK-MEL-2)?
The GI50 was > 100 µM (inactive).

What about the GI50 (RPMI-8226) of the same molecule?
Its GI50 is > 100 µM (inactive).

And the GI50 (COLO 205)?
The GI50 was > 100 µM (inactive).

What about the GI50 (TK-10) of the same molecule?
The GI50 was > 100 µM (inactive).

What about the GI50 (Hs-578T) of the same molecule?
Its GI50 is > 100 µM (inactive).

And the GI50 (K562)?
The GI50 was > 100 µM (inactive).

What about the GI50 (MDA-MB-435) of the same molecule?
The GI50 was > 100 µM (inactive).

What about the GI50 (M14) of the same molecule?
The GI50 was > 100 µM (inactive).

And the GI50 (U-251)?
The GI50 was > 100 µM (inactive).

What about the GI50 (HT-29) of the same molecule?
Its GI50 is > 100 µM (inactive).

And the GI50 (NCI-H522)?
Its GI50 is > 100 µM (inactive).

What about the GI50 (OVCAR-3) of the same molecule?
The GI50 was > 100 µM (inactive).

And the GI50 (MCF7)?
The GI50 was > 100 µM (inactive).

And the GI50 (786-0)?
Its GI50 is > 100 µM (inactive).

What about the GI50 (CAKI-1) of the same molecule?
The GI50 was > 100 µM (inactive).

What about the GI50 (ACHN) of the same molecule?
The GI50 was > 100 µM (inactive).

And the GI50 (OVCAR-8)?
The GI50 was > 100 µM (inactive).

And the GI50 (MDA-N)?
The GI50 was > 100 µM (inactive).

What about the GI50 (IGROV-1) of the same molecule?
Its GI50 is > 100 µM (inactive).

And the GI50 (SK-OV-3)?
Its GI50 is > 100 µM (inactive).

And the GI50 (NCI/ADR-RES)?
The GI50 was > 100 µM (inactive).

And the GI50 (HCT-116)?
Its GI50 is > 100 µM (inactive).

What about the GI50 (SF-539) of the same molecule?
Its GI50 is > 100 µM (inactive).

And the GI50 (A549)?
Its GI50 is > 100 µM (inactive).
